Measurements reported in ChEMBL document CHEMBL4417631, “Oral peptide inhibitors of interleukin-23 receptor and their use to treat inflammatory bowel diseases” (2017).
Where a SMILES comes first, the peptide text is derived from it.

Assays:
[1] = Inhibition of interleukin-23 binding to rat interleukin-23 receptor incubated for 2 hrs by competitive binding ELISA
Interleukin-23 receptor [2] = biological target: T1, Interleukin-23 receptor (Homo sapiens, UniProt Q5VWK5); assay: Inhibition of interleukin-23 binding to human interleukin-23 receptor incubated for 2 hrs by competitive binding ELISA
T1 sequence (Q5VWK5 whole entry): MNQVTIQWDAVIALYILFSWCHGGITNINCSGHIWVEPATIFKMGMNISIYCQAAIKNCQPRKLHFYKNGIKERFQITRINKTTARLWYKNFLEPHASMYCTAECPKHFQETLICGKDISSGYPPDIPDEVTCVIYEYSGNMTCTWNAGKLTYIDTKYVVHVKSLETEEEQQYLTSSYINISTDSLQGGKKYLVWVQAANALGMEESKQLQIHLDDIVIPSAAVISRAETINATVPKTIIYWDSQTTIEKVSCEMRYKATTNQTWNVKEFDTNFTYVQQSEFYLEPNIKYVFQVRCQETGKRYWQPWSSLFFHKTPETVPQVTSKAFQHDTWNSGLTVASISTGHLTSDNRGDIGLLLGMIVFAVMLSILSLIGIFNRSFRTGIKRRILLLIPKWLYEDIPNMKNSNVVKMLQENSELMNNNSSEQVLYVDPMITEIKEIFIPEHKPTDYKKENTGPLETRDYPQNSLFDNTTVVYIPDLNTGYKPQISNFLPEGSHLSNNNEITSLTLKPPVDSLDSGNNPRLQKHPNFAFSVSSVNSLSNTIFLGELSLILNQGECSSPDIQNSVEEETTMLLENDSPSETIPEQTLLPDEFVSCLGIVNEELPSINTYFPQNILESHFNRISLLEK

Interleukin-23 receptor [3] = biological target: T1, Interleukin-23 receptor; assay: Inhibition of interleukin-23 receptor in human DB cells assessed as reduction in IL-23-stimulated STAT3 phosphorylation incubated for 30 mins by HTRF assay; type: cell-based
[4] = Half life in simulated intestinal fluid at 20 uM by LC-MS/MS analysis; type: ADME

IC50 [1] [nM]	IC50 (Interleukin-23 receptor [2]) [nM]	IC50 (Interleukin-23 receptor [3]) [nM]	half-life at 20 µM [4] [h]	Compound
125				CC(=O)N[C@@H](CS)C(=O)N[C@@H](CCC(N)=O)C(=O)N[C@H](C(=O)N[C@@H](Cc1c[nH]c2ccccc12)C(=O)N[C@@H](CCC(N)=O)C(=O)N[C@@H](CS)C(=O)N[C@@H](Cc1cccc2ccccc12)C(=O)N[C@@H](Cc1ccc2ccccc2c1)C(=O)N[C@@H](CCC(C)C)C(=O)N[C@@H](CCC(=O)O)C(=O)N[C@@H](CC(N)=O)C(=O)NCC(N)=O)[C@@H](C)O
1000				CC(=O)N[C@@H](CS)C(=O)N[C@@H](CCC(N)=O)C(=O)N[C@H](C(=O)N[C@@H](Cc1c[nH]c2ccccc12)C(=O)N[C@@H](CCC(N)=O)C(=O)N[C@@H](CS)C(=O)N[C@@H](Cc1ccc(O)cc1)C(=O)N[C@@H](Cc1c[nH]c2ccccc12)C(=O)N[C@@H](CCC(C)C)C(=O)N[C@@H](CCC(=O)O)C(=O)N[C@@H](CC(N)=O)C(=O)N[C@@H](CCC(=O)O)C(N)=O)[C@@H](C)O
26				CC(=O)N[C@@H](CC(C)C)C(=O)N[C@@H](CS)C(=O)N[C@@H](CCC(N)=O)C(=O)N[C@H](C(=O)N[C@@H](Cc1c[nH]c2ccccc12)C(=O)N[C@@H](CCC(N)=O)C(=O)N[C@@H](CS)C(=O)N[C@@H](Cc1ccc(O)cc1)C(=O)N[C@@H](Cc1c[nH]c2ccccc12)C(=O)N[C@@H](CCC(C)C)C(=O)N[C@@H](CCC(=O)O)C(=O)N[C@@H](CC(N)=O)C(=O)NCC(N)=O)[C@@H](C)O
	25 to 100	25 to 100	< 1	CC(=O)N[C@H]1CCSC[C@@H](C(=O)N[C@@H](Cc2ccc(OCCN)cc2)C(=O)N[C@@H](Cc2ccc3ccccc3c2)C(=O)N[C@@H](CCCN)C(=O)N[C@@H](CN)C(=O)N[C@@H](CC(N)=O)C(=O)NCC(N)=O)NC(=O)[C@H](CCC(N)=O)NC(=O)[C@H](Cc2c[nH]c3ccccc23)NC(=O)[C@H]([C@@H](C)O)NC(=O)[C@H](CCC(N)=O)NC1=O
778				CC(=O)N[C@@H](CS)C(=O)N[C@@H](CCCNC(=N)N)C(=O)N[C@H](C(=O)N[C@@H](Cc1c[nH]c2ccccc12)C(=O)N[C@@H](CCC(N)=O)C(=O)N[C@@H](CS)C(=O)N[C@@H](Cc1ccc(O)cc1)C(=O)N[C@@H](Cc1c[nH]c2ccccc12)C(=O)N[C@@H](CO)C(=O)N[C@@H](CCC(=O)O)C(=O)N[C@@H](Cc1ccccc1)C(=O)NCC(=O)N[C@H](C(=O)NCC(=O)N[C@@H](CCC(=O)O)C(N)=O)[C@@H](C)O)[C@@H](C)O (Ac-CRTWQCYWSEFGTGE-NH2)
	100 to 1000	25 to 100	2 to 3	CC(=O)NCCCC[C@H](NC(=O)[C@](C)(CCCCN)NC(=O)[C@H](Cc1ccc2ccccc2c1)NC(=O)[C@H](Cc1ccc(Cl)c(Cl)c1)NC(=O)[C@@H]1CSCC[C@H](NC(C)=O)C(=O)N[C@@H](CCC(N)=O)C(=O)N[C@@H]([C@@H](C)O)C(=O)N[C@@H](Cc2c[nH]c3ccccc23)C(=O)N[C@@H](CCC(N)=O)C(=O)N1)C(=O)N[C@@H](CC(N)=O)C(=O)NCC(N)=O
20				CC(=O)N[C@@H](CS)C(=O)N[C@@H](CCC(N)=O)C(=O)N[C@H](C(=O)N[C@@H](Cc1c[nH]c2ccccc12)C(=O)N[C@@H](CCC(N)=O)C(=O)N[C@@H](CS)C(=O)N[C@@H](Cc1ccc(O)cc1)C(=O)N[C@@H](Cc1c[nH]c2ccccc12)C(=O)N[C@@H](Cc1cccnc1)C(=O)N[C@@H](CCC(=O)O)C(=O)N[C@@H](CC(N)=O)C(=O)NCC(N)=O)[C@@H](C)O
79				CC(=O)N[C@@H](CS)C(=O)N[C@@H](CC(N)=O)C(=O)N[C@H](C(=O)N[C@@H](Cc1c[nH]c2ccccc12)C(=O)N[C@@H](CCC(N)=O)C(=O)N[C@@H](CS)C(=O)N[C@@H](Cc1ccc(O)cc1)C(=O)N[C@@H](Cc1c[nH]c2ccccc12)C(=O)N[C@@H](CCCNC(=N)N)C(=O)N[C@H](C(=O)N[C@@H](Cc1ccccc1)C(=O)NCC(=O)NCCOCC(=O)N[C@H](CCCCN)C(N)=O)C(C)C)[C@@H](C)O
140				CC(=O)N[C@@H](CS)C(=O)N[C@@H](CCC(N)=O)C(=O)N[C@H](C(=O)N[C@@H](Cc1c[nH]c2ccccc12)C(=O)N[C@@H](CCC(N)=O)C(=O)N[C@@H](CS)C(=O)N[C@@H](Cc1ccc(O)cc1)C(=O)N[C@@H](Cc1c[nH]c2ccccc12)C(=O)N[C@@H](CCC(C)C)C(=O)N[C@@H](CCC(=O)O)C(=O)N1CCC[C@H]1C(=O)NCC(N)=O)[C@@H](C)O
73				CC(=O)N[C@@H](CS)C(=O)N[C@@H](CCC(N)=O)C(=O)N[C@H](C(=O)N[C@@H](Cc1c[nH]c2ccccc12)C(=O)N[C@@H](CCC(N)=O)C(=O)N[C@@H](CS)C(=O)N[C@@H](Cc1ccc2ccccc2c1)C(=O)N[C@@H](Cc1c[nH]c2ccccc12)C(=O)N[C@@H](CCC(C)C)C(=O)N[C@@H](CCC(=O)O)C(=O)N[C@@H](CC(N)=O)C(=O)NCC(N)=O)[C@@H](C)O
67				CC(=O)N[C@@H](CS)C(=O)N[C@@H](CCC(N)=O)C(=O)N[C@H](C(=O)N[C@@H](Cc1c[nH]c2ccccc12)C(=O)N[C@@H](CCC(N)=O)C(=O)N[C@@H](CS)C(=O)N[C@@H](Cc1ccc(O)cc1)C(=O)N[C@@H](Cc1cccc2ccccc12)C(=O)N[C@@](C)(CC(C)C)C(=O)N[C@@H](CCC(=O)O)C(=O)N[C@@H](CC(N)=O)C(=O)NCC(N)=O)[C@@H](C)O
204				CC(=O)N[C@@H](CS)C(=O)N[C@@H](CO)C(=O)N[C@H](C(=O)N[C@@H](Cc1c[nH]c2ccccc12)C(=O)N[C@@H](CCC(N)=O)C(=O)N[C@@H](CS)C(=O)N[C@@H](Cc1ccc(O)cc1)C(=O)N[C@@H](Cc1c[nH]c2ccccc12)C(=O)N[C@@H](CO)C(=O)N[C@@H](CCCCN)C(=O)N[C@@H](CCC(N)=O)C(=O)N[C@@H](CO)C(=O)NCC(=O)NCC(=O)N[C@@H](CO)C(N)=O)[C@@H](C)O (Ac-CSTWQCYWSKQSGGS-NH2)
276				C[C@@H](O)[C@H](NC(=O)[C@H](CCC(N)=O)NC(=O)[C@@H](N)CS)C(=O)N[C@@H](Cc1c[nH]c2ccccc12)C(=O)N[C@@H](CCC(N)=O)C(=O)N[C@@H](CS)C(=O)N[C@@H](Cc1ccc(O)cc1)C(=O)N[C@@H](Cc1c[nH]c2ccccc12)C(=O)N[C@@H](CCCN)C(=O)N[C@@H](CN)C(=O)N[C@@H](Cc1ccccc1)C(=O)NCC(=O)NCCOCC(=O)N[C@H](CCCCN)C(N)=O
86				CC(=O)N[C@@H](CS)C(=O)N[C@@H](CCCNC(=N)N)C(=O)N[C@H](C(=O)N[C@@H](Cc1c[nH]c2ccccc12)C(=O)N[C@@H](CCC(N)=O)C(=O)N[C@@H](CS)C(=O)N[C@@H](Cc1ccc(O)cc1)C(=O)N[C@@H](Cc1c[nH]c2ccccc12)C(=O)N[C@@H](CCCNC(=N)N)C(=O)N[C@@H](CCC(=O)O)C(=O)N[C@@H](CC(N)=O)C(=O)NCC(=O)N[C@@H](C)C(=O)N[C@H](CCCCN)C(N)=O)[C@@H](C)O
51				CC(=O)N[C@@H](CS)C(=O)N[C@@H](CCN)C(=O)N[C@H](C(=O)N[C@@H](Cc1c[nH]c2ccccc12)C(=O)N[C@@H](CCC(N)=O)C(=O)N[C@@H](CS)C(=O)N[C@@H](Cc1ccc(O)cc1)C(=O)N[C@@H](Cc1c[nH]c2ccccc12)C(=O)N[C@@H](CCCNC(=N)N)C(=O)N[C@H](C(=O)N[C@@H](Cc1ccccc1)C(=O)NCC(=O)NCCOCC(=O)N[C@H](CCCCN)C(N)=O)C(C)C)[C@@H](C)O
	100 to 1000		> 6	CC(=O)NCCCC[C@H](NC(=O)[C@](C)(CCCCN)NC(=O)[C@H](Cc1ccc2ccccc2c1)NC(=O)[C@H](Cc1ccc(Oc2ccccc2)cc1)NC(=O)[C@@H]1CSCC[C@H](NC(C)=O)C(=O)N[C@@H](CCC(N)=O)C(=O)N[C@@H]([C@@H](C)O)C(=O)N[C@@H](Cc2c[nH]c3ccccc23)C(=O)N[C@@H](CCC(N)=O)C(=O)N1)C(=O)N[C@@H](CC(N)=O)C(=O)NCC(N)=O
	25 to 100	10 to 25	< 1	CC(=O)N[C@H]1CCSC[C@@H](C(=O)N[C@@H](Cc2ccc(O)cc2)C(=O)N[C@@H](Cc2c[nH]c3ccccc23)C(=O)N[C@@H](CCC(C)C)C(=O)N[C@@H](CCC(=O)O)C(=O)N[C@@H](CC(N)=O)C(=O)NCC(N)=O)NC(=O)[C@H](CCC(N)=O)NC(=O)[C@H](Cc2c[nH]c3ccccc23)NC(=O)[C@H]([C@@H](C)O)NC(=O)[C@H](CCC(N)=O)NC1=O
	25 to 100		< 1	CC(=O)N[C@H]1CCSC[C@@H](C(=O)N[C@@H](Cc2ccc(OCCN)cc2)C(=O)N[C@@H](Cc2c[nH]c3ccccc23)C(=O)N[C@@H](CCCN)C(=O)N[C@@H](CCC(=O)O)C(=O)N[C@@H](CC(N)=O)C(=O)NCC(N)=O)NC(=O)[C@H](CCC(N)=O)NC(=O)[C@H](Cc2c[nH]c3ccccc23)NC(=O)[C@H]([C@@H](C)O)NC(=O)[C@H](CCC(N)=O)NC1=O
	10 to 25	10 to 25	< 1	CC(=O)NCCCC[C@H](NC(=O)[C@H](CCCN)NC(=O)[C@H](Cc1ccc2ccccc2c1)NC(=O)[C@H](Cc1ccc(OCCN)cc1)NC(=O)[C@@H]1CSCC[C@H](NC(C)=O)C(=O)N[C@@H](CCC(N)=O)C(=O)N[C@@H]([C@@H](C)O)C(=O)N[C@@H](Cc2c[nH]c3ccccc23)C(=O)N[C@@H](CCC(N)=O)C(=O)N1)C(=O)N[C@@H](CC(N)=O)C(=O)NCC(N)=O
